According to US20230295234A1, “ANTIMICROBIAL PEPTIDOMIMETICS” (SPEXIS AG, priority 2020, published 2023):
Where two headings read alike, the source gives them in different places. Bridge positions count the residues as written; N and C are the ends. Square brackets hold non-standard residues; d marks the D form. Peptide text beside a SMILES is read from it. * marks the point of attachment. Val(Nα-amidino) = CC(C)[C@H](NC(=N)N)C(=O)*; Pro(4R-NH2) = N[C@H]1CN[C@H](C(=O)O)C1; Pen = CC(C)(S)[C@H](N)C(=O)O; dDab = NCC[C@@H](N)C(=O)O; Dab = NCC[C@H](N)C(=O)O

Experiments:
[1] = tested on: Escherichia coli MCR-1 Af 45; conditions: Mueller-Hinton broth II, 18-20 hours at 35° C.
Summary of the method: (§1)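 Activity is measured against peptides serially diluted two-fold in water with 0.002% final Polysorbate 80. The cells are in cation-adjusted MHII broth at roughly 5×10^5 CFU/mL, prepared from a 0.5 McFarland suspension in 0.85% NaCl.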

[2] = tested on: Escherichia coli ATCC 25922
Summary of the method: as §1

[3] = tested on: Klebsiella pneumoniae SSI3010
Summary of the method: as §1

[4] = tested on: human red blood cells (hRBC); experiment: Hemolysis of human red blood cells; format: cell-based
Summary of the method: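 PBS-washed human red blood cells (20% v/v) were incubated with peptide at 200 μg/mL for 1 h at 37 °C with shaking. Supernatant OD was read at 540 nm after 8-fold dilution. Hemolysis is expressed as percent of the water control.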

[5] = Mueller-Hinton broth II, 18-20 hours at 35° C.

| SMILES | Escherichia coli MCR-1 Af 45 MIC [1] [mg/L] | Escherichia coli ATCC 25922 MIC [2, 5] [mg/L] | Klebsiella pneumoniae SSI3010 MIC [3, 5] [mg/L] | Hemolysis at 0.2 g/L ([4]; 20% hRBC, 1 h at 37° C.) [%] | Escherichia coli ATCC 25922 MIC ([2]; ATCC 25922) [mg/L] | Klebsiella pneumoniae SSI3010 MIC ([3]; SSI3010) [mg/L] | Hemolysis at 0.2 g/L ([4]; red cells of human, 1 h) [%] |
| --- | --- | --- | --- | --- | --- | --- | --- |
| CC[C@H](C)[C@H](NC(=O)[C@@H](NC(=O)[C@@H]1CCCN1C(=O)[C@@H](NC(=N)N)C(C)C)[C@@H](C)CC)C(=O)N[C@@H](Cc1ccc(O)cc1)C(=O)N[C@@H]1C(=O)N[C@@H](CC(N)=O)C(=O)N[C@@H](CCCNC(=N)N)C(=O)N[C@@H](CCN)C(=O)N[C@@H]([C@@H](C)O)C(=O)N[C@H](CCN)C(=O)N[C@@H](CCCCN)C(=O)N[C@H](C(=O)N[C@@H](CCN)C(=O)N[C@@H](CCCNC(=N)N)C(=O)N[C@@H](Cc2ccc(O)cc2)C(=O)O)CSSC1(C)C [Example 187] (HELM PEPTIDE1{[CC(C)[C@H](NC(=N)N)C(=O)[*:2]].P.I.I.Y.[Pen].N.R.[Dab].T.[NCC[C@@H](N[*:1])C(=O)[*:2]].K.C.[Dab].R.Y}$PEPTIDE1,PEPTIDE1,6:R3-13:R3$$$V2.0) | 0.125 | 0.125 | 0.125 | 0 |  |  |  |
| CC[C@H](C)[C@H](NC(=O)[C@@H]1C[C@@H](O)CN1C(=O)[C@@H](NC(=N)N)C(C)C)C(=O)N[C@H](C(=O)N[C@@H](Cc1ccc(O)cc1)C(=O)N[C@@H]1C(=O)N[C@@H](CC(N)=O)C(=O)N[C@@H](CCCNC(=N)N)C(=O)N[C@@H](CCN)C(=O)N[C@@H]([C@@H](C)O)C(=O)N[C@H](CCN)C(=O)N[C@@H](CCCCN)C(=O)N[C@H](C(=O)N[C@@H](CCN)C(=O)N[C@@H](CCCNC(=N)N)C(=O)N[C@@H](Cc2ccc(O)cc2)C(=O)O)CSSC1(C)C)[C@@H](C)O [Example 188] (HELM PEPTIDE1{[CC(C)[C@H](NC(=N)N)C(=O)[*:2]].[Hyp].I.T.Y.[Pen].N.R.[Dab].T.[NCC[C@@H](N[*:1])C(=O)[*:2]].K.C.[Dab].R.Y}$PEPTIDE1,PEPTIDE1,6:R3-13:R3$$$V2.0) | ≤0.125 |  |  |  | 0.125 | 0.25 | 0 |
| CC[C@H](C)[C@H](NC(=O)[C@@H](NC(=O)[C@@H]1C[C@@H](O)CN1C(=O)[C@@H](NC(=N)N)C(C)C)[C@@H](C)CC)C(=O)N[C@@H](Cc1ccc(O)cc1)C(=O)N[C@@H]1C(=O)N[C@@H](CC(N)=O)C(=O)N[C@@H](CCCNC(=N)N)C(=O)N[C@@H](CCN)C(=O)N[C@@H]([C@@H](C)O)C(=O)N[C@H](CCN)C(=O)N[C@@H](CCCCN)C(=O)N[C@H](C(=O)N[C@@H](CCN)C(=O)N[C@@H](CCCNC(=N)N)C(=O)N[C@@H](Cc2ccc(O)cc2)C(=O)O)CSSC1(C)C [Example 189] (HELM PEPTIDE1{[CC(C)[C@H](NC(=N)N)C(=O)[*:2]].[Hyp].I.I.Y.[Pen].N.R.[Dab].T.[NCC[C@@H](N[*:1])C(=O)[*:2]].K.C.[Dab].R.Y}$PEPTIDE1,PEPTIDE1,6:R3-13:R3$$$V2.0) | 0.03125 | 0.03125 | 0.0625 | 0 |  |  |  |
| CC[C@H](C)[C@H](NC(=O)[C@@H]1C[C@@H](N)CN1C(=O)[C@@H](NC(=N)N)C(C)C)C(=O)N[C@H](C(=O)N[C@@H](Cc1ccc(O)cc1)C(=O)N[C@@H]1C(=O)N[C@@H](CC(N)=O)C(=O)N[C@@H](CCCNC(=N)N)C(=O)N[C@@H](CCN)C(=O)N[C@@H]([C@@H](C)O)C(=O)N[C@H](CCN)C(=O)N[C@@H](CCCCN)C(=O)N[C@H](C(=O)N[C@@H](CCN)C(=O)N[C@@H](CCCNC(=N)N)C(=O)N[C@@H](Cc2ccc(O)cc2)C(=O)O)CSSC1(C)C)[C@@H](C)O [Example 190] ({Val(Nα-amidino)}-[Pro(4R-NH2)]ITY[Pen]NR[Dab]T[dDab]KC[Dab]RY-OH; disulfide 5-12) | 0.0625 |  |  |  | 0.0625 | 0.125 | 0 |
| CC[C@H](C)[C@H](NC(=O)[C@@H](NC(=O)[C@@H]1C[C@@H](N)CN1C(=O)[C@@H](NC(=N)N)C(C)C)[C@@H](C)CC)C(=O)N[C@@H](Cc1ccc(O)cc1)C(=O)N[C@@H]1C(=O)N[C@@H](CC(N)=O)C(=O)N[C@@H](CCCNC(=N)N)C(=O)N[C@@H](CCN)C(=O)N[C@@H]([C@@H](C)O)C(=O)N[C@H](CCN)C(=O)N[C@@H](CCCCN)C(=O)N[C@H](C(=O)N[C@@H](CCN)C(=O)N[C@@H](CCCNC(=N)N)C(=O)N[C@@H](Cc2ccc(O)cc2)C(=O)O)CSSC1(C)C [Example 191] ({Val(Nα-amidino)}-[Pro(4R-NH2)]IIY[Pen]NR[Dab]T[dDab]KC[Dab]RY-OH; disulfide 5-12) | 0.0625 |  |  |  | 0.0625 | 0.0625 | 0 |
| CC[C@H](C)[C@H](NC(=O)[C@@H]1C[C@@H](O)CN1C(=O)[C@@H](NC(=N)N)C(C)C)C(=O)N[C@@H](Cc1ccc(O)cc1)C(=O)N[C@@H](Cc1ccc(O)cc1)C(=O)N[C@@H]1C(=O)N[C@@H](CC(N)=O)C(=O)N[C@@H](CCCNC(=N)N)C(=O)N[C@@H](CCN)C(=O)N[C@@H]([C@@H](C)O)C(=O)N[C@H](CCN)C(=O)N[C@@H](CCCCN)C(=O)N[C@H](C(=O)N[C@@H](CCC(N)=O)C(=O)N[C@@H](CCCNC(=N)N)C(=O)N[C@@H](Cc2ccc(O)cc2)C(=O)O)CSSC1(C)C [Example 192] (HELM PEPTIDE1{[CC(C)[C@H](NC(=N)N)C(=O)[*:2]].[Hyp].I.Y.Y.[Pen].N.R.[Dab].T.[NCC[C@@H](N[*:1])C(=O)[*:2]].K.C.Q.R.Y}$PEPTIDE1,PEPTIDE1,6:R3-13:R3$$$V2.0) | 0.25 |  |  |  | 0.25 | 0.25 | 0 |
| CC[C@H](C)[C@H](NC(=O)[C@@H]1C[C@@H](O)CN1C(=O)[C@@H](NC(=N)N)C(C)C)C(=O)N[C@H](C(=O)N[C@@H](Cc1ccc(O)cc1)C(=O)N[C@@H]1C(=O)N[C@@H](CCC(=O)O)C(=O)N[C@@H](CCCNC(=N)N)C(=O)N[C@@H](CCN)C(=O)N[C@@H]([C@@H](C)O)C(=O)N[C@H](CCN)C(=O)N[C@@H](CCCCN)C(=O)N[C@H](C(=O)N[C@@H](CCN)C(=O)N[C@@H](CCCNC(=N)N)C(=O)N[C@@H](Cc2ccc(O)cc2)C(=O)O)CSSC1(C)C)[C@@H](C)O [Example 193] (HELM PEPTIDE1{[CC(C)[C@H](NC(=N)N)C(=O)[*:2]].[Hyp].I.T.Y.[Pen].E.R.[Dab].T.[NCC[C@@H](N[*:1])C(=O)[*:2]].K.C.[Dab].R.Y}$PEPTIDE1,PEPTIDE1,6:R3-13:R3$$$V2.0) | 0.25 |  |  |  | 0.25 | 0.5 | 0 |
| CC[C@H](C)[C@H](NC(=O)[C@@H]1C[C@@H](O)CN1C(=O)[C@@H](NC(=N)N)C(C)C)C(=O)N[C@H](C(=O)N[C@@H](Cc1ccc(O)cc1)C(=O)N[C@@H]1C(=O)N[C@@H](Cc2c[nH]cn2)C(=O)N[C@@H](CCCNC(=N)N)C(=O)N[C@@H](CCN)C(=O)N[C@@H]([C@@H](C)O)C(=O)N[C@H](CCN)C(=O)N[C@@H](CCCCN)C(=O)N[C@H](C(=O)N[C@@H](CCN)C(=O)N[C@@H](CCCNC(=N)N)C(=O)N[C@@H](Cc2ccc(O)cc2)C(=O)O)CSSC1(C)C)[C@@H](C)O [Example 194] (HELM PEPTIDE1{[CC(C)[C@H](NC(=N)N)C(=O)[*:2]].[Hyp].I.T.Y.[Pen].H.R.[Dab].T.[NCC[C@@H](N[*:1])C(=O)[*:2]].K.C.[Dab].R.Y}$PEPTIDE1,PEPTIDE1,6:R3-13:R3$$$V2.0) | 0.125 |  |  |  | 0.25 | 0.25 | 0 |
